The target of one assay is T1, human recombinant HDAC6 (Homo sapiens, UniProt Q9UBN7).
T1 construct: purchased Calibiochem Co. (so in the source) 382180
T1 sequence (Q9UBN7 1-1215): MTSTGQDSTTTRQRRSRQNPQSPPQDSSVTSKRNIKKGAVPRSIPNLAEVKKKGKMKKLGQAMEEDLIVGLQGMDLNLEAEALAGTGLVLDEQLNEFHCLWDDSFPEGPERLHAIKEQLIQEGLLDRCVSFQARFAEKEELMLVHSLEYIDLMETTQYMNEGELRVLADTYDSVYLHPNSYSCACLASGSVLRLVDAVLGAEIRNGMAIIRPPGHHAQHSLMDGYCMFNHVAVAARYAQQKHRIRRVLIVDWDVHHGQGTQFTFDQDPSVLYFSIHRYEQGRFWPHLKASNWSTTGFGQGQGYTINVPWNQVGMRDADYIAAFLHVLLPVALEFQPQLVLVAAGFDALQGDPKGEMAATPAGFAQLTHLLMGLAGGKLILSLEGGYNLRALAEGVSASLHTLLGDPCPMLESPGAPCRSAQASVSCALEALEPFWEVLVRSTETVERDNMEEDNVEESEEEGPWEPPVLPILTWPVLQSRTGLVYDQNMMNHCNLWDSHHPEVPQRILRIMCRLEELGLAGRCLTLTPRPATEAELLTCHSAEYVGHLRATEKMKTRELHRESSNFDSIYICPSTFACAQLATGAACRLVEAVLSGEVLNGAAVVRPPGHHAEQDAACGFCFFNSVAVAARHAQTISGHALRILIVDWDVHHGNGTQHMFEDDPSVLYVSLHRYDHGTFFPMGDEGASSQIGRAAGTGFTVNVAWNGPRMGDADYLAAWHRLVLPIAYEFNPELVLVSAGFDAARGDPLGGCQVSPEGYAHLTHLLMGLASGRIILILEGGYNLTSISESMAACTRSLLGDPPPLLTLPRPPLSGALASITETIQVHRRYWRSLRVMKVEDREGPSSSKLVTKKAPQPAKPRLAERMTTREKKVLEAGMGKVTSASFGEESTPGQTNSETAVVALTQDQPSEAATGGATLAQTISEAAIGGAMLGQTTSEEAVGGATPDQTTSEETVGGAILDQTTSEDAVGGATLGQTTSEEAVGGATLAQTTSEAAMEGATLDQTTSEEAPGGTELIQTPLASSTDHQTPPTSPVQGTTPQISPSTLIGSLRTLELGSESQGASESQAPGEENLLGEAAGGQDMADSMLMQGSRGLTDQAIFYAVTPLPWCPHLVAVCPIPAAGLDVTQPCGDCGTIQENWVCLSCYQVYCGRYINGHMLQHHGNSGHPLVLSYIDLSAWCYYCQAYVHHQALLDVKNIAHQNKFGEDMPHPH
Put plainly: HDAC enzyme activity test, HDAC6. It is filed as biochemical. Particulars: Table 12; for Selectivity for HDAC6, HD1/HD6: ratio HDAC1 IC50 / HDAC6 IC50; for IC50: read-out: Inhibition ability (IC50) HDAC6. As to the method:
(§1) Then, 0.3 μg of enzyme and 10 μM of substrate per well were added, reacted at 30° C. for 60 minutes. Thereto, Fluor de Lys® Developer II (BML-KI176) was added and reacted for 30 minutes. […] From the data, the respective IC50 were calculated by GraphPad Prism 4.0 program.

For the next assay, the target named is T2, Human recombinant HDAC1 (Homo sapiens, UniProt Q13547).
T2 construct: purchased Enzo Life Science Co. (named for the kit; assigned to the enzyme from the BML- catalogue prefix) BML-SE456
The experiment in a line: HDAC enzyme activity test, HDAC1. In kind it is biochemical. Particulars: Table 12; read-out: Inhibition ability (IC50) HDAC1. As to the method: as §1

Usually IC50 stands for the concentration that inhibits the measured activity by half.

T2 sequence (Q13547 whole entry): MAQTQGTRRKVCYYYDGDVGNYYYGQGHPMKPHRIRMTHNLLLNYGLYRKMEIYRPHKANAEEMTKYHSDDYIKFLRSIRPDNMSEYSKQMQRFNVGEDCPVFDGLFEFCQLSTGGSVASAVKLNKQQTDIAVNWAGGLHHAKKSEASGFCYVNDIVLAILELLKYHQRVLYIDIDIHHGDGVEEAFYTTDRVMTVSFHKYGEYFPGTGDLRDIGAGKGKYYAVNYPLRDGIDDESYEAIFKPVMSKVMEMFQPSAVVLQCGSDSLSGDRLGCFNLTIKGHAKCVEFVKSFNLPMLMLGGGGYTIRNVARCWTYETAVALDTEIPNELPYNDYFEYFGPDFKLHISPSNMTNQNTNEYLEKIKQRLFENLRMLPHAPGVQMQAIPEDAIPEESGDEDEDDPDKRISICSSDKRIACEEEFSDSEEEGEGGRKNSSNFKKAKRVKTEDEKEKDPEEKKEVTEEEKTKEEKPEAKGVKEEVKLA

Consider `Cc1nccn1CC1CCc2c(c3ccccc3n2Cc2ccc(C(=O)NO)cc2)C1=O` (stereo not drawn) [Compound 85, N-hydroxy-4-((3-((2-methyl-1H-imidazole-1-yl)methyl)-4-oxo-1,2,3,4-tetrahydrocarbazol-9-yl)methyl)benzamide], for which, at human recombinant HDAC6, the “Selectivity for HDAC6, HD1/HD6” value is given as 225 and the IC50 was determined as 0.0113 µM. Besides, on Human recombinant HDAC1, the IC50 stood at 2.55 µM.
The corresponding values for `O=C(NO)c1ccc(Cn2c3c(c4ccccc42)C(=O)C(CN2CCCCC2)CC3)cc1` (stereo not drawn) [Compound 86, N-hydroxy-4-((4-oxo-3-(piperidin-1-ylmethyl)-1,2,3,4-tetrahydrocarbazol-9-yl)methyl)benzamide] are 286.1, 0.00994 µM and 2.84 µM.
Turning to `O=C(NO)c1ccc(Cn2c3c(c4ccccc42)C(=O)C(CN2CCCC2)CC3)cc1` (stereo not drawn) [Compound 88, N-hydroxy-4-((4-oxo-3-(pyrrolidin-1-ylmethyl)-1,2,3,4-tetrahydrocarbazol-9-yl)methyl)benzamide], on human recombinant HDAC6, the “Selectivity for HDAC6, HD1/HD6” value came out at 358.7 and the IC50 was found to be 0.0111 µM. In addition, the IC50 at Human recombinant HDAC1 was 3.97 µM.
Regarding `O=C(NO)c1ccc(Cn2c3c(c4ccccc42)C(=O)CCC3)cc1` [Compound 99, N-hydroxy-4-((4-oxo-1,2,3,4-tetrahydrocarbazol-9-yl)methyl)benzamide], the “Selectivity for HDAC6, HD1/HD6” value on human recombinant HDAC6 was 163.9. Moreover, the IC50 stood at 0.0164 µM on human recombinant HDAC6 and 2.68 µM on Human recombinant HDAC1.
The corresponding values for `Cc1nn(Cc2ccc(C(=O)NO)cc2)c2c1C(=O)CC(C)(C)C2` [Compound 101, N-hydroxy-4-((3,6,6-trimethyl-4-oxo-4,5,6,7-tetrahydroindazol-1-yl)methyl)benzamide] are 135.1, 0.0122 µM and 1.65 µM.
The corresponding values for `CC1CN(CC2CCc3c(c4ccccc4n3Cc3ccc(C(=O)NO)cc3)C2=O)CC(C)O1` (stereo not drawn) [Compound 110, 4-((3-((2,6-dimethylmorpholino)methyl)-4-oxo-1,2,3,4-tetrahydrocarbazol-9-yl)methyl)-N-hydroxybenzamide] are 80, 0.0112 µM and 0.896 µM.
As for `CN1CCN(CC2CCc3c(c4ccccc4n3Cc3ccc(C(=O)NO)cc3)C2=O)CC1` (stereo not drawn) [Compound 111, N-hydroxy-4-((3-((4-methylpiperazin-1-yl)methyl)-4-oxo-1,2,3,4-tetrahydrocarbazol-9-yl)methyl)benzamide], at human recombinant HDAC6, the “Selectivity for HDAC6, HD1/HD6” value amounted to 338.2 and the IC50 amounted to 0.0122 µM. Also, the IC50 on Human recombinant HDAC1 amounted to 4.14 µM.
For `CCN1CCN(CC2CCc3c(c4ccccc4n3Cc3ccc(C(=O)NO)cc3)C2=O)CC1` (stereo not drawn) [Compound 112, 4-((3-((4-ethylpiperazin-1-yl)methyl)-4-oxo-1,2,3,4-tetrahydrocarbazol-9-yl)methyl)-N-hydroxy benzamide], in that order: 310.6, 0.0149 µM and 4.62 µM.
Consider `CC(C)N1CCN(CC2CCc3c(c4ccccc4n3Cc3ccc(C(=O)NO)cc3)C2=O)CC1` (stereo not drawn) [Compound 113, N-hydroxy-4-((3-((4-isopropylpiperazin-1-yl)methyl)-4-oxo-1,2,3,4-tetrahydrocarbazol-9-yl)methyl)benzamide], for which, at human recombinant HDAC6, the “Selectivity for HDAC6, HD1/HD6” value is 287.1 and the IC50 came out at 0.0085 µM. Further, the IC50 at Human recombinant HDAC1 amounted to 2.44 µM.
For the molecule `COCCN1CCN(CC2CCc3c(c4ccccc4n3Cc3ccc(C(=O)NO)cc3)C2=O)CC1` (stereo not drawn) [Compound 114], on human recombinant HDAC6, the “Selectivity for HDAC6, HD1/HD6” value amounted to 327.1 and the IC50 is 0.0177 µM. Further, the IC50 on Human recombinant HDAC1 came to 5.79 µM.
The corresponding values for `O=C(NO)c1ccc(Cn2c3c(c4ccccc42)C(=O)C(CN2CC(F)(F)C2)CC3)cc1` (stereo not drawn) [Compound 121, 4-((3-((3,3-difluoroazetidin-1-yl)methyl)-4-oxo-1,2,3,4-tetrahydrocarbazol-9-yl)methyl)-N-hydroxybenzamide] are 437.3, 0.00851 µM and 3.72 µM.
For `CC1(C)Cc2c(c3ccccc3n2Cc2ccc(C(=O)NO)cc2)C(=O)C1CN1CCOCC1` (stereo not drawn) [Compound 122, 4-((2,2-dimethyl-3-(morpholinomethyl)-4-oxo-1,2,3,4-tetrahydrocarbazol-9-yl)methyl)-N-hydroxybenzamide], in that order: 153, 0.041 µM and 6.27 µM.
The corresponding values for `O=C(NO)c1ccc(Cn2c3c(c4ccccc42)C(=O)C(CN2CCC(F)(F)C2)CC3)cc1` (stereo not drawn) [Compound 123, 4-((3-((3,3-difluoropyrrolidin-1-yl)methyl)-4-oxo-1,2,3,4-tetrahydrocarbazol-9-yl)methyl)-N-hydroxybenzamide] are 539.8, 0.00661 µM and 3.57 µM.
For the molecule `Cc1nccn1CC1C(=O)c2c(n(Cc3ccc(C(=O)NO)cc3)c3ccccc23)CC1(C)C` (stereo not drawn) [Compound 126, 4-((2,2-dimethyl-3-((2-methyl-1H-imidazol-1-yl)methyl)-4-oxo-1,2,3,4-tetrahydrocarbazol-9-yl)methyl)-N-hydroxybenzamide], the “Selectivity for HDAC6, HD1/HD6” value on human recombinant HDAC6 is 163.3. Besides, the IC50 came out at 0.0355 µM at human recombinant HDAC6 and 5.8 µM at Human recombinant HDAC1.
The corresponding values for `O=C(NO)c1ccc(Cn2c3c(c4ccccc42)C(=O)C(CN2CCN(c4ccc(F)cc4)CC2)CC3)cc1` (stereo not drawn) [Compound 127, 4-((3-((4-(4-fluorophenyl)piperazin-1-yl)methyl)-4-oxo-1,2,3,4-tetrahydrocarbazol-9-yl)methyl)-N-hydroxybenzamide] are 622.7, 0.00851 µM and 5.3 µM.
For `Cc1ccc(N2CCN(CC3CCc4c(c5ccccc5n4Cc4ccc(C(=O)NO)cc4)C3=O)CC2)cc1C` (stereo not drawn) [Compound 128, 4-((3-((4-(3,4-dimethylphenyl)piperazin-1-yl)methyl)-4-oxo-1,2,3,4-tetrahydrocarbazol-9-yl)methyl)-N-hydroxybenzamide], in that order: 198.6, 0.041 µM and 8.14 µM.
For `CN(C)CC1C(=O)c2c(n(Cc3ccc(C(=O)NO)cc3)c3ccccc23)CC1(C)C` (stereo not drawn) [Compound 129, 4-((3-((dimethylamino)methyl)-2,2-dimethyl-4-oxo-1,2,3,4-tetrahydrocarbazol-9-yl)methyl)-N-hydroxybenzamide], in that order: 642.7, 0.00661 µM and 4.25 µM.
In the case of `CS(=O)(=O)N1CCN(CC2CCc3c(c4ccccc4n3Cc3ccc(C(=O)NO)cc3)C2=O)CC1` (stereo not drawn) [Compound 130, N-hydroxy-4-((3-((4-(methylsulfonyl)piperazin-1-yl)methyl)-4-oxo-1,2,3,4-tetrahydrocarbazol-9-yl)methyl)benzamide], the “Selectivity for HDAC6, HD1/HD6” value on human recombinant HDAC6 was determined as 564.9. Besides, the IC50 at human recombinant HDAC6 is 0.0047 µM; on Human recombinant HDAC1, 2.64 µM.
As for `CC1(C)CCc2c(c3ccccc3n2Cc2ccc(C(=O)NO)cc2)C1=O` [Compound 131, 4-((3,3-dimethyl-4-oxo-1,2,3,4-tetrahydrocarbazol-9-yl)methyl)-N-hydroxybenzamide], on human recombinant HDAC6, the “Selectivity for HDAC6, HD1/HD6” value came out at 296.6 and the IC50 came to 0.0091 µM. On Human recombinant HDAC1, the IC50 was found to be 2.69 µM.
The corresponding values for `Cc1cn(Cc2ccc(C(=O)NO)cc2)c2c1C(=O)CC(C)(C)C2` [Compound 136, N-hydroxy-4-((3,6,6-trimethyl-4-oxo-4,5,6,7-tetrahydro-1H-indol-1-yl)methyl)benzamide] are 380.3, 0.00858 µM and 3.26 µM.

For the origin of these results see patent US20140315889A1, “HYDROXAMATE DERIVATIVES FOR HDAC INHIBITOR, AND THE PHARMACEUTICAL COMPOSITION COMPRISING THEREOF” (CHONG KUN DANG PHARMACEUTICAL CORP., priority 2011, published 2014).
